3 compounds from publication PMC5546919 (The Journal of organic chemistry, 2010) can be followed below.

What all share (type): biochemical
For assay [1], the target named is T1, human 20S proteasome, caspase-like (C-L) activity (Homo sapiens, UniProt P28072).
T1 sequence (P28072 35-239): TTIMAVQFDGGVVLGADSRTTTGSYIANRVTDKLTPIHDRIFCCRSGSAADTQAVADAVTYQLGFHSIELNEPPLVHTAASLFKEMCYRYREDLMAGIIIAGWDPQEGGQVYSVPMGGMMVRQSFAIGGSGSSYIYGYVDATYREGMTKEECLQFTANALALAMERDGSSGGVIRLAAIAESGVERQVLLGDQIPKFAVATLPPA
Put plainly: Proteasome-Glo luminogenic assay, C-L substrate.

Assay [2] deals with T2, human 20S proteasome, chymotrypsin-like (CT-L) activity (Homo sapiens, UniProt P28074).
T2 sequence (P28074 60-263): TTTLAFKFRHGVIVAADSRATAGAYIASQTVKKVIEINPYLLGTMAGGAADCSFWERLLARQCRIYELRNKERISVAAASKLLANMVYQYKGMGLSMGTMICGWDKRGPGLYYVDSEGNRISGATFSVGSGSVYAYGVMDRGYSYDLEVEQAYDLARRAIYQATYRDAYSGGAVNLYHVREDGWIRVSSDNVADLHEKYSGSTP
Put plainly: Proteasome-Glo luminogenic assay, CT-L substrate.

The target of assay [3] is T3, human 20S proteasome, trypsin-like (T-L) activity (Homo sapiens, UniProt Q99436).
T3 sequence (Q99436 44-277): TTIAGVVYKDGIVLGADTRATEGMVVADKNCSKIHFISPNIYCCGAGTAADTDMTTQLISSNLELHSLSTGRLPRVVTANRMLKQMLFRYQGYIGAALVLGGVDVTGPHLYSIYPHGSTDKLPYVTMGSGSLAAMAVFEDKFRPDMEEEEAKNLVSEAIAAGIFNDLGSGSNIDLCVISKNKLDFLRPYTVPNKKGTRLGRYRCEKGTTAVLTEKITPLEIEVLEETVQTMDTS
Put plainly: Proteasome-Glo luminogenic assay, T-L substrate.

Assay [4] concerns the target T4, human 26S proteasome, chymotrypsin-like (CT-L) activity (Homo sapiens, UniProt P28074).
T4 sequence (P28074 60-263): T2 sequence (P28074 60-263)
Put plainly: Proteasome-Glo luminogenic assay, CT-L substrate.

Assay [5] has as its target T5, human 26S proteasome, trypsin-like (T-L) activity (Homo sapiens, UniProt Q99436).
T5 sequence (Q99436 44-277): T3 sequence (Q99436 44-277)
Put plainly: Proteasome-Glo luminogenic assay, T-L substrate.

The target in assay [6] is T6, human 26S proteasome, caspase-like (C-L) activity (Homo sapiens, UniProt P28072).
T6 sequence (P28072 35-239): T1 sequence (P28072 35-239)
Put plainly: Proteasome-Glo luminogenic assay, C-L substrate.

As a reminder, the IC50 is the concentration that inhibits the measured activity by half. Low readings indicate greater potency, high ones weaker potency.

For `CCCCCCC1C(=O)NC2(C(O)C3C=CCCC3)C(=O)OC12C` (racemic) [(±)-2, rac-cinnabaramide A], the IC50 in assay [1] amounted to 125 ± 12 nM; in assay [2] it was 2.8 ± 0.6 nM; in assay [3], 260 ± 29 nM; in assay [4], 2.2 ± 0.04 nM.
Consider `C[C@@]12OC(=O)[C@]1([C@@H](O)[C@@H]1C=CCCC1)NC(=O)[C@@H]2CCCl` [1a, (−)-salino A], for which the IC50 in assay [1] was 111 ± 22 nM; in assay [5], 37 ± 16 nM; in assay [3], 39 ± 7 nM; in assay [6], 156 ± 18 nM.
`C[C@@]12OC(=O)[C@]1([C@@H](O)[C@@H]1C=CCCC1)NC(=O)[C@@H]2CCCCl` [compound 54, (−)-homosalino]: the IC50 in assay [1] amounted to 144 ± 12 nM; in assay [5], 125 ± 30 nM; in assay [3], 118 ± 28 nM; in assay [6], 188 ± 3 nM.
